Among the data in patent US8288371B2, “Ortho pyrrolidine, benzyl-substituted heterocycle CCR1 antagonists for autoimmune diseases and inflammation” (Pharmacopeia, LLC, priority 2007, dated 2012) are IC50 values, retold here.

The term IC50 denotes the concentration needed to halve the response being measured.

Structures are written as SMILES. Where only a bound is given, the exact number is not on record here.

This experiment addresses T1, human CCR1 (Homo sapiens, UniProt P32246).
T1 sequence (P32246 1-355): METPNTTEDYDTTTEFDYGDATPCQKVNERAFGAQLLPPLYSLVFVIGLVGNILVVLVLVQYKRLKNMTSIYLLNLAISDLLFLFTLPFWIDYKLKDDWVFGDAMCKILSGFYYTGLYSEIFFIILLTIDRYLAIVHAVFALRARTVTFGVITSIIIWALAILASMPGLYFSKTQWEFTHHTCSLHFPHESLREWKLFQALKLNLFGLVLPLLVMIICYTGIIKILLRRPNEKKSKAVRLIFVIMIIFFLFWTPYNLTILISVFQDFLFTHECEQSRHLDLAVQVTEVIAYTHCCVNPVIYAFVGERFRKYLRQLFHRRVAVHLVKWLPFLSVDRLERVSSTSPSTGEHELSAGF
As to the kind of experiment: CCR1 binding protocol (SPA, [125I]-MIP-1α displacement). As to conditions: cell membrane expressing human CCR1, 0.1 nM [125I]-MIP-1α, 4 hours at ambient temperature; read-out: Relative potency (IC50). The gist of the method:
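Human CCR1 membranes (0.5 μg/well) on SPA beads were incubated with compound and 0.1 nM [125I]-MIP-1α (final) for 4 h at ambient temperature. Buffer was Tris pH 7.4 with NaCl, KCl, MnCl and 0.1% BSA. IC50 came from ½-log compound dilutions (10 mM top DMSO stock) by displacement of bound radioligand.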
Consider `Cc1nnc([C@H]2CCCN2C(=O)Cc2ccc(Cl)nc2)n1Cc1ccc(Cl)cc1` [Compound 518], for which the IC50 was less than 50 nM. Under `Cc1nnc([C@H]2CCCN2C(=O)Nc2ccc3occc3c2)n1Cc1ccc(Cl)cc1` [Compound 122] stands 50 to 500 nM; under `Cc1nnc([C@H]2CCCN2C(=O)N[C@@H](C)c2ccc(C(F)(F)F)nc2)n1Cc1ccc(Cl)cc1` [Compound 468], less than 50 nM.

Consider `O=C(NC1(c2ccccc2)CC1)N1CCC[C@@H]1c1ncnn1Cc1ccc(Cl)cc1` [Compound 100], for which the IC50 lay in the range of 500 to 5000 nM. Consider `Cc1c(Cl)nc([C@H]2CCCN2C(=O)Nc2ccc(Cl)cc2F)n1Cc1ccc(Cl)cc1` [Compound 457], for which the concentration for half-maximal inhibition (IC50) was in the range of 50 to 500 nM. The value for `Cc1nnc([C@H]2CCCN2C(=O)Nc2ccncn2)n1Cc1ccc(Cl)cc1` [Compound 258] was 500 to 5000 nM; that for `Cc1nc(C(F)(F)F)ccc1N/C(=N\O)N1CCC[C@@H]1c1nnc(C)n1Cc1ccc(Cl)cc1` [Compound 605] was 50 to 500 nM. As for `Cc1nnc([C@H]2CCCN2/C(=N/C#N)NCc2ccc(Cl)cc2Cl)n1Cc1ccc(Cl)cc1` [Compound 420], the IC50 lay in the range of 50 to 500 nM. `Cc1nnc([C@H]2C[C@@H](O)CN2C(=O)Nc2ccc(F)c(C(F)(F)F)c2)n1Cc1ccc(Cl)cc1` [Compound 449]: the IC50 lay within 500 to 5000 nM. As for `Cc1onc(NC(=O)N2CCC[C@@H]2c2nnc(C)n2Cc2ccc(Cl)cc2)c1F` [Compound 590], the IC50 lay in the range of 50 to 500 nM.

Turning to `N#C/N=C(\Nc1ccc(C(F)(F)F)cc1)N1CCC[C@@H]1c1nnc(CO)n1Cc1ccc(Cl)cc1` [Compound 372], the IC50 was 500 to 5000 nM.

As for `Cc1cc(C)c(NC(=O)N2CCC[C@@H]2c2nnc(C)n2Cc2ccc(Cl)cc2)c(C(=O)N(C)C)c1` [Compound 239], the IC50 lay in the range of 50 to 500 nM. Turning to `CSc1ccc(NC(=O)N2CCC[C@@H]2c2nccn2Cc2ccc(Cl)cc2)cc1` [Compound 37], the IC50 is less than 50 nM. Under `Cc1cc(C)c(C(N)=O)cc1NC(=O)N1CCC[C@@H]1c1nnc(C)n1Cc1ccc(Cl)cc1` [Compound 363] stands 50 to 500 nM; under `O=C(NCc1ccc(Cl)cc1Cl)N1C[C@H](O)C[C@@H]1c1nncn1Cc1ccc(Cl)cc1` [Compound 475], 50 to 500 nM. In the case of `Cc1cc(Cl)cc(C)c1NC(=O)N1CCC[C@@H]1c1nnc(C)n1Cc1ccc(Cl)cc1` [Compound 115], the IC50 was less than 50 nM.

As to `Cc1nnc([C@H]2CCCN2C(=O)Nc2cccc(-c3ccnn3C)c2)n1Cc1ccc(Cl)cc1` [Compound 620], the IC50 was 500 to 5000 nM.

For `COC(=O)c1ccc(C)c(NC(=O)N2CCC[C@@H]2c2nnc(C)n2Cc2ccc(Cl)cc2)c1` [Compound 193], the IC50 was less than 50 nM. The value for `CC(=O)O[C@@H]1C[C@H](c2nnc(C)n2Cc2ccc(Cl)cc2)N(C(=O)Nc2ccc(Cl)nc2Cl)C1` [Compound 500] was 50 to 500 nM; that for `Cc1nnc([C@H]2CC(F)CN2C(=O)NCc2ccc(Cl)c(Cl)c2)n1Cc1ccc(Cl)cc1` (stereo partly shown) [Compound 570] was less than 50 nM. Under `Cc1nnc([C@H]2CCCN2C(=O)Nc2ccc(Cl)c(C#N)c2)n1Cc1ccc(Cl)cc1` [Compound 487] stands less than 50 nM. The value for `Cc1nnc([C@H]2CCCN2C(=O)Nc2cc(S(C)(=O)=O)ccc2F)n1Cc1ccc(Cl)cc1` [Compound 376] was 50 to 500 nM. For the compound `CC[C@H](NC(=O)N1CCC[C@@H]1c1ncnn1Cc1ccc(Cl)cc1)c1c(C)cc(C(F)(F)F)cc1C` [Compound 90], the IC50 lay within 50 to 500 nM. As for `O=C(NC1CCCOc2ccccc21)N1CCC[C@@H]1c1nccn1Cc1ccc(Cl)cc1` (stereo partly shown) [Compound 32], the IC50 was less than 50 nM. Regarding `CC[C@H](Nc1c(N2CCC[C@@H]2c2nnc(C)n2Cc2ccc(Cl)cc2)c(=O)c1=O)c1cc2ccccc2o1` [Compound 588], the IC50 lay in the range of 50 to 500 nM.
